PubChem BioAssay AID256 (DTP/NCI, 2004)
Toxic doses and inconclusive results are not listed. The calls were made as follows: active = survival T/C of 150% or more; inactive = T/C below 125% in these data.

System: CD2F1 mice, L1210 leukemia ip, survival T/C
Experiment: NCI In Vivo Anticancer Drug Screen. Data for tumor model L1210 Leukemia (intraperitoneal) in CD2F1 (CDF1) mice
Conditions: endpoint: mean survival time, schedule: Q04DX003 (ip), vehicle: saline with Tween-80, higher = longer survival
Procedure, shortened: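 Tumor-bearing mice (transplanted tumor) were split into treated and vehicle control groups, and the measured endpoint of each treated group was divided by that of its vehicle controls.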

Measured: T/C

COCC(=O)C(C(C)=O)C(c1ccncc1)C(C(C)=O)C(=O)COC (stereo not drawn)
inactive: dose: 100.0 mg/kg/injection 96 % of control | dose: 200.0 mg/kg/injection 98 % of control | dose: 400.0 mg/kg/injection 102 % of control

CC(C)OC(=S)S.[Pt]
inactive: dose: 11.3 mg/kg/injection 89 % of control | dose: 22.5 mg/kg/injection 97 % of control | dose: 45.0 mg/kg/injection 101 % of control | dose: 90.0 mg/kg/injection 97 % of control | dose: 180.0 mg/kg/injection 95 % of control
